Source: ChEMBL document CHEMBL1909046, “DrugMatrix in vitro pharmacology data”

Key:
[1] = target: T1, Type-2 angiotensin II receptor (Homo sapiens, UniProt P50052); assay: biochemical; type: cell-based, CHO-K1
T1 sequence (P50052 whole entry): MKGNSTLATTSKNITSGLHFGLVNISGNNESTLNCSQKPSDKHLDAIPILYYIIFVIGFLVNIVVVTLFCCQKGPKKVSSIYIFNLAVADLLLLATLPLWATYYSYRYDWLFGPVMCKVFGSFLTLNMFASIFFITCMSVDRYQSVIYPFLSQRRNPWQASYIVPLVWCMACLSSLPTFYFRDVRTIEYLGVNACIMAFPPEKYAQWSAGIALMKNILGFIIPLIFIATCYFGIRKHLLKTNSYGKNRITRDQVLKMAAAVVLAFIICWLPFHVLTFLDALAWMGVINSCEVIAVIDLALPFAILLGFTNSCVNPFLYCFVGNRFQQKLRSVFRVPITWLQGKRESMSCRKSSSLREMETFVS

Calcitonin receptor = target: T2, Calcitonin receptor (Homo sapiens, UniProt P30988); type: cell membranes, Membrane; conditions: t47d
T2 sequence (P30988 whole entry): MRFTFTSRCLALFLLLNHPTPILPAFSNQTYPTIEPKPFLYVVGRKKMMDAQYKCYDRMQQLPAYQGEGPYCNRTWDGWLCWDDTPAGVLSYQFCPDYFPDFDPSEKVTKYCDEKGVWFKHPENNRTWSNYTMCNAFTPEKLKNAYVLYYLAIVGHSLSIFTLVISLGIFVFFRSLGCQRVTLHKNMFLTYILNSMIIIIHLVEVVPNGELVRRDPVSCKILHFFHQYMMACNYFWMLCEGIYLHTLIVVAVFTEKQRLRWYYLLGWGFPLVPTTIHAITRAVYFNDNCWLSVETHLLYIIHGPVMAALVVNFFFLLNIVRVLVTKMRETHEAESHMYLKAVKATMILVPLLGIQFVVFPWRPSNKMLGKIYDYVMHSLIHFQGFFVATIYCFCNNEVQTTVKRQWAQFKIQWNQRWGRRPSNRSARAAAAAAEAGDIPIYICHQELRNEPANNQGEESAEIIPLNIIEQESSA

[2] = target: Prostaglandin G/H synthase 1 (Homo sapiens, UniProt P23219); assay: biochemical; type: tissue-based, Platelet; conditions: platelet;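 further: inhibition of COX-1 enzyme activity, with arachidonic acid supplied as substrate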
Chain of Prostaglandin G/H synthase 1 (P23219 whole entry): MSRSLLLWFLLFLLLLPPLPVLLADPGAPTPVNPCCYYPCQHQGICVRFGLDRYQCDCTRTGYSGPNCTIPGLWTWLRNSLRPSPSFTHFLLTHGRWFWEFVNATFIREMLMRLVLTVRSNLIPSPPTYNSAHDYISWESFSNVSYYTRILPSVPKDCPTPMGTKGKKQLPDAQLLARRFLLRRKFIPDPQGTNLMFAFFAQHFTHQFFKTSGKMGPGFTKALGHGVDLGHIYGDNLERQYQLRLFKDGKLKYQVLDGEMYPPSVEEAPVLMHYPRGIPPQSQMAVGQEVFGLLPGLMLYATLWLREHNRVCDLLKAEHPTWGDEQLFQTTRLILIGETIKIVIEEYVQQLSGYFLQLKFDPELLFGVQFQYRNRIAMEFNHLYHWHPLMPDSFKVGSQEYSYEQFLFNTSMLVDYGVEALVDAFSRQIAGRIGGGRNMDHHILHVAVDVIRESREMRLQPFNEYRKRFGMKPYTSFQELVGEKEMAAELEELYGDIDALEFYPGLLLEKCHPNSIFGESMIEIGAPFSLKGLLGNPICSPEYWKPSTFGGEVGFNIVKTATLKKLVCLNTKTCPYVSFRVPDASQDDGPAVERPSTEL

Glycine receptor = Glycine receptor (Rattus norvegicus, UniProt P22771+P24524+P07727+P20781); type: cell membranes, Wistar, Spinal cord, Membrane
Insulin receptor = Insulin receptor (Rattus norvegicus, UniProt P15127); type: cell membranes, Wistar, Liver, Membrane
Chain of Insulin receptor (P15127 27-759 limits assumed): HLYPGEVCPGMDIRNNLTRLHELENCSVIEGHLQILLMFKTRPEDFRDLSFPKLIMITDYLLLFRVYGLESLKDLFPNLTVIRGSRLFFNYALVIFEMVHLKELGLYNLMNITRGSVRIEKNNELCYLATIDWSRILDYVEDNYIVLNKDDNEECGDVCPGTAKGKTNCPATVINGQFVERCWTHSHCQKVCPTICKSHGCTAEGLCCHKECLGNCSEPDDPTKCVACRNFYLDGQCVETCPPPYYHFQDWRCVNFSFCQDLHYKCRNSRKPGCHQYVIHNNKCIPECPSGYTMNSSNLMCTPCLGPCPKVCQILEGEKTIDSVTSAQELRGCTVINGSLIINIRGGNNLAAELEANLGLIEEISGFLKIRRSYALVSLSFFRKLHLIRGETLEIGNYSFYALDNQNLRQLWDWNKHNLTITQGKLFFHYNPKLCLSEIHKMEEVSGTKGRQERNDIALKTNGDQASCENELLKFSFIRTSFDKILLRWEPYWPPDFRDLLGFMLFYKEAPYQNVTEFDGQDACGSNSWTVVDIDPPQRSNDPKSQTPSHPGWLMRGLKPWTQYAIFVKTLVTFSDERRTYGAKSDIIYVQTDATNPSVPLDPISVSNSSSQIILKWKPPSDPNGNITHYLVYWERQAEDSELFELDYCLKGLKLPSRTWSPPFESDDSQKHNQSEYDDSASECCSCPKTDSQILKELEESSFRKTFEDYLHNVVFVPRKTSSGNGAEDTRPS
Chain of Insulin receptor (P15127 764-1383 limits assumed): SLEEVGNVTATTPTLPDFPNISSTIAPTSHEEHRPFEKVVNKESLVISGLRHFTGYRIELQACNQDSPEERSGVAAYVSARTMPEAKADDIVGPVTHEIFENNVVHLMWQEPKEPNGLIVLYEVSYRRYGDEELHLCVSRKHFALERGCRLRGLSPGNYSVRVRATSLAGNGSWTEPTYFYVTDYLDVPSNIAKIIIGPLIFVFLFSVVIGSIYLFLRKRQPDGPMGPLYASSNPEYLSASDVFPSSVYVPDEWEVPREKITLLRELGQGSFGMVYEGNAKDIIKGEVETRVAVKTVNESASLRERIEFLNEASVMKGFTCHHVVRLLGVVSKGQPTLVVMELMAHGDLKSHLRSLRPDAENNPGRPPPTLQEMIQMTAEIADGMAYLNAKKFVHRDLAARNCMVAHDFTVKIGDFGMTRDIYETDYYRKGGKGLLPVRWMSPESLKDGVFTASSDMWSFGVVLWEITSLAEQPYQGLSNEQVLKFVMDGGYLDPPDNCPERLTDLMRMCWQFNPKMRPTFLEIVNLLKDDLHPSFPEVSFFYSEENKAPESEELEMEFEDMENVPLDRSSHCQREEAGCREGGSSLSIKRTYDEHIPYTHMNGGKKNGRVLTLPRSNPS

[3] = target: T3, Polyunsaturated fatty acid lipoxygenase ALOX15 (Oryctolagus cuniculus, UniProt P12530); assay: biochemical; type: tissue-based, Reticulocytes; conditions: reticulocytes;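 further: inhibition of 15-lipoxygenase enzyme activity measured with linoleic acid as the substrate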
T3 sequence (P12530 whole entry): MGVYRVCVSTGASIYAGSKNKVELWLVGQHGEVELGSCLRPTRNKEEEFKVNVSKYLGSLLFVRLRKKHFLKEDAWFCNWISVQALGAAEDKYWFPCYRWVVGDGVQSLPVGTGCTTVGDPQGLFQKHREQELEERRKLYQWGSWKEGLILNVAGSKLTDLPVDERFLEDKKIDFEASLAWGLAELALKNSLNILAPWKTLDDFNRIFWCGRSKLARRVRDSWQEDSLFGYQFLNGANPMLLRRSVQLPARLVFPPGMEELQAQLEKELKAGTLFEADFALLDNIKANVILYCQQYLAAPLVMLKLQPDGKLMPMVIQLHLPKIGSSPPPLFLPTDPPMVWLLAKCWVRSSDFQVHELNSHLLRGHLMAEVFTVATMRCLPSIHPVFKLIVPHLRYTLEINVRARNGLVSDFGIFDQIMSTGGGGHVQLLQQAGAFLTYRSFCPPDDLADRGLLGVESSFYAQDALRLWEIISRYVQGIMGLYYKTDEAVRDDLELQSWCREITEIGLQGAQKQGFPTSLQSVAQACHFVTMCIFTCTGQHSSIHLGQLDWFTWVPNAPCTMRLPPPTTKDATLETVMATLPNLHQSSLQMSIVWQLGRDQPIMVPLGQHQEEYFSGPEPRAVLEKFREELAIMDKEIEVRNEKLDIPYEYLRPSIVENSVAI

[4] = target: Receptor tyrosine-protein kinase erbB-2 (Homo sapiens, UniProt P04626); assay: biochemical; type: cell-based, Insect cells;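 further: inhibition of HER2 kinase enzyme activity, measured with Poly(Glu:Tyr) as the phosphorylation substrate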
Chain of Receptor tyrosine-protein kinase erbB-2 (P04626 whole entry): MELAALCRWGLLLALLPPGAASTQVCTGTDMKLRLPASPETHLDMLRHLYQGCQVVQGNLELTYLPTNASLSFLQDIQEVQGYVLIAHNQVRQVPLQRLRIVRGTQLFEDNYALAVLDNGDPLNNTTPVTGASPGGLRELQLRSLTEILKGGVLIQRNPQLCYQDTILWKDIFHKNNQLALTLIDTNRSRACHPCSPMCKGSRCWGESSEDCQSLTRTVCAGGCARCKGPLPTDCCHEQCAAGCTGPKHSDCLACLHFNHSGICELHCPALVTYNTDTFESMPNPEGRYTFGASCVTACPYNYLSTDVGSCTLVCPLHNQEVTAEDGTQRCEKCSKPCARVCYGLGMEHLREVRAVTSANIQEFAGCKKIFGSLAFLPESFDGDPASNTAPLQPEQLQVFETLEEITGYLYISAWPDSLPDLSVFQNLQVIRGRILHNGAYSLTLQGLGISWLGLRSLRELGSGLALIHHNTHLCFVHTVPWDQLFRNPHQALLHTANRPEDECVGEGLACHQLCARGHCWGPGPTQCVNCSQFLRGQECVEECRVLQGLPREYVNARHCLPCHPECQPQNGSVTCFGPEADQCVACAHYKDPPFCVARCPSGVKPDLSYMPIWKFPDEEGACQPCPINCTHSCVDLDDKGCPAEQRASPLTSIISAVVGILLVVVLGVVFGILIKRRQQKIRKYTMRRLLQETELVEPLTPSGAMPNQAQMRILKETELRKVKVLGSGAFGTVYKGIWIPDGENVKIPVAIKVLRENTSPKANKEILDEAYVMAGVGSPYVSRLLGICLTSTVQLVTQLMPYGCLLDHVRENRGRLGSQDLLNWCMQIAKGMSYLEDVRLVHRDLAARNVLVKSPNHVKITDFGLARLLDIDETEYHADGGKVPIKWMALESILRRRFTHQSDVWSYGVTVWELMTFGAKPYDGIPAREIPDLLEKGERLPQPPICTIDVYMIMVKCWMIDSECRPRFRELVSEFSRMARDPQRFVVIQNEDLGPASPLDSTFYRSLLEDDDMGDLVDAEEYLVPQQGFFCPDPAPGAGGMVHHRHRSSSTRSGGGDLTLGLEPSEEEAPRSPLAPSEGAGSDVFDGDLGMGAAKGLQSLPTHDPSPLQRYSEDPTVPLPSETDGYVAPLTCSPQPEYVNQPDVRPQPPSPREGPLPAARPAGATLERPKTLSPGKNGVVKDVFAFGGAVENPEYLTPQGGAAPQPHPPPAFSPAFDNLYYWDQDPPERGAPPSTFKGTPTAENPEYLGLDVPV

Cytochrome P450 2A6 = target: T4, Cytochrome P450 2A6 (Homo sapiens, UniProt P11509); conditions: bti-tn-5b1-4
T4 sequence (P11509 whole entry): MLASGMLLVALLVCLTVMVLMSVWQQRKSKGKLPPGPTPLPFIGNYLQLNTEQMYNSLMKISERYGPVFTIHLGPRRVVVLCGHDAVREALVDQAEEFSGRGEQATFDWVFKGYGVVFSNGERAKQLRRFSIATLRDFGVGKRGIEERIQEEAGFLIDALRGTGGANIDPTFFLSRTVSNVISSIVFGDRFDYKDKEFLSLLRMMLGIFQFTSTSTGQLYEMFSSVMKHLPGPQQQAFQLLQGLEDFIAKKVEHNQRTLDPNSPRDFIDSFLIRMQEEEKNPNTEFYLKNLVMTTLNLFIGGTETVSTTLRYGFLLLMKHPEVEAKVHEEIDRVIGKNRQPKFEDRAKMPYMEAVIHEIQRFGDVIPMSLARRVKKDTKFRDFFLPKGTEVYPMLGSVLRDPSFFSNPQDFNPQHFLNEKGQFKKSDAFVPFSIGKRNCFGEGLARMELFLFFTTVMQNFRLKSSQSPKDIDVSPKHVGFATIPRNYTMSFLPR
Further: in other assays of this panel Not Active means under 50% inhibition at 10 µM.

For `CC(=N)S` [THIOACETAMIDE], the IC50 ([1]; cho-k1) was “Not Active”, the IC50 (Calcitonin receptor) was “Not Active” and the IC50 [2] was “Not Active”. For the same compound, the IC50 (Glycine receptor) was “Not Active”, the IC50 (Insulin receptor) was “Not Active” and the IC50 [3] was “Not Active”. For the same compound, the IC50 ([4]; insect cells) was “Not Active”, the IC50 (Cytochrome P450 2A6) was “Not Active” and the Ki (Cytochrome P450 2A6) was “Not Active”.
In the case of `O=C1C[C@@H]2OCC=C3CN4CC[C@]56c7ccccc7N1[C@H]5[C@H]2[C@H]3C[C@H]46` [STRYCHNINE], the IC50 ([1]; cho-k1) is reported as “Not Active”, the IC50 (Calcitonin receptor) is reported as “Not Active” and the IC50 [2] is reported as “Not Active”. The IC50 (Insulin receptor) was “Not Active”, the IC50 [3] was “Not Active” and the IC50 ([4]; insect cells) was “Not Active”. For the same compound, the IC50 (Cytochrome P450 2A6) was “Not Active” and the Ki (Cytochrome P450 2A6) was “Not Active”.
`Nc1ccc(S(=O)(=O)NC(=O)c2ccccc2)cc1` [SULFABENZAMIDE] was tested, and the IC50 ([1]; cho-k1) was “Not Active”, the IC50 (Calcitonin receptor) was “Not Active” and the IC50 [2] was “Not Active”. For the same compound, the IC50 (Glycine receptor) was “Not Active”, the IC50 (Insulin receptor) was “Not Active” and the IC50 [3] was “Not Active”. For the same compound, the IC50 ([4]; insect cells) was “Not Active”, the IC50 (Cytochrome P450 2A6) was “Not Active” and the Ki (Cytochrome P450 2A6) was “Not Active”.
`CC(=O)OCC(COC(C)=O)OC(C)=O` [TRIACETIN] was tested, and the IC50 ([1]; cho-k1) was “Not Active”, the IC50 (Calcitonin receptor) was “Not Active” and the IC50 [2] was “Not Active”. For the same compound, the IC50 (Glycine receptor) was “Not Active”, the IC50 (Insulin receptor) was “Not Active” and the IC50 [3] was “Not Active”. The IC50 ([4]; insect cells) was “Not Active”, the IC50 (Cytochrome P450 2A6) was “Not Active” and the Ki (Cytochrome P450 2A6) was “Not Active”.
In the case of `CCCCC(=O)N(Cc1ccc(-c2ccccc2-c2nnn[nH]2)cc1)[C@H](C(=O)O)C(C)C`, the IC50 ([1]; cho-k1) is reported as “Not Active”, the IC50 (Calcitonin receptor) is reported as “Not Active” and the IC50 [2] is reported as “Not Active”. For the same compound, the IC50 (Glycine receptor) was “Not Active”, the IC50 (Insulin receptor) was “Not Active” and the IC50 [3] was “Not Active”. For the same compound, the IC50 ([4]; insect cells) was “Not Active”, the IC50 (Cytochrome P450 2A6) was “Not Active” and the Ki (Cytochrome P450 2A6) was “Not Active”.
In the case of `OCCOCCN1CCN(C2=Nc3ccccc3Sc3ccccc32)CC1` [QUETIAPINE], the IC50 ([1]; cho-k1) is reported as “Not Active”, the IC50 (Calcitonin receptor) is reported as “Not Active” and the IC50 [2] is reported as “Not Active”. The IC50 (Glycine receptor) was “Not Active”, the IC50 (Insulin receptor) was “Not Active” and the IC50 [3] was “Not Active”. The IC50 ([4]; insect cells) was “Not Active”, the IC50 (Cytochrome P450 2A6) was “Not Active” and the Ki (Cytochrome P450 2A6) was “Not Active”.
`CC1CCC(NC(=O)N(CCCl)N=O)CC1` (stereo not drawn) [SEMUSTINE] was tested, and the IC50 ([1]; cho-k1) was “Not Active”, the IC50 (Calcitonin receptor) was “Not Active” and the IC50 [2] was “Not Active”. For the same compound, the IC50 (Glycine receptor) was “Not Active”, the IC50 (Insulin receptor) was “Not Active” and the IC50 [3] was “Not Active”. For the same compound, the IC50 ([4]; insect cells) was “Not Active”, the IC50 (Cytochrome P450 2A6) was “Not Active” and the Ki (Cytochrome P450 2A6) was “Not Active”.
With `Oc1ccc2c3c1O[C@H]1[C@@H](O)CC[C@@]4(O)[C@@H](C2)N(CC2CCC2)CC[C@]314` [NALBUPHINE] the IC50 ([1]; cho-k1) was “Not Active”, the IC50 (Calcitonin receptor) was “Not Active” and the IC50 [2] was “Not Active”. The IC50 (Glycine receptor) was “Not Active”, the IC50 (Insulin receptor) was “Not Active” and the IC50 [3] was “Not Active”. The IC50 ([4]; insect cells) was “Not Active”.
For `Clc1ccc(COC(Cn2ccnc2)c2ccc(Cl)cc2Cl)c(Cl)c1` (stereo not drawn) [MICONAZOLE], the IC50 ([1]; read-out: IC50) was 24 µM, the Ki ([1]; read-out: Ki) was 7.78 µM and the IC50 (Calcitonin receptor) was “Not Active”. The IC50 [2] was “Not Active”, the IC50 (Glycine receptor) was “Not Active” and the IC50 (Insulin receptor) was “Not Active”. The IC50 [3] was “Not Active”, the IC50 ([4]; read-out: IC50) was 27.4 µM and the IC50 (Cytochrome P450 2A6) was “Not Active”. The Ki (Cytochrome P450 2A6) was “Not Active”.
With `O=C(O)CCCCC1CCSS1` (stereo not drawn) [LIPOIC ACID, ALPHA] the IC50 ([1]; cho-k1) was “Not Active”, the IC50 (Calcitonin receptor) was “Not Active” and the IC50 [2] was “Not Active”. For the same compound, the IC50 (Glycine receptor) was “Not Active”, the IC50 (Insulin receptor) was “Not Active” and the IC50 [3] was “Not Active”. The IC50 ([4]; insect cells) was “Not Active”, the IC50 (Cytochrome P450 2A6) was “Not Active” and the Ki (Cytochrome P450 2A6) was “Not Active”.
